Data reported in patent US20030148337A1, “ARL-2 for birth control” (Schering AG, priority 2001, published 2003).

Assays:
[1] = test system: adrenocorticotrophic carcinoma cell line Y1; experiment: Test system for apoptosis-inducing substances, annexin-V staining in Y1 cells; format: cell-based, mouse; conditions: concentration of 10 μM; 12 hours incubation
Description: In this test system, substances can be examined with respect to their apoptosis-inducing action. The adrenocorticotrophic carcinoma cell line Y1 was used as a cell system. Cell cultures of this mouse cell line were treated for 12 hours with different substances before the rate of apoptosis in the cells was determined. […] Y1 cells/ml were resuspended in DME/F12 (+10% FCS) and treated with the substances to be tested. After 12 hours of incubation time, the apoptosis rate was determined in the Y1 cells using annexin-V-alexa 468 staining (Roche) in combination with DNA staining (Hoechst-33258, Molecular Probes) according to manufacturer's information.

[2] = test system: endothelial cell cultures; conditions: Herbst et al., 1997; cited from earlier work
[3] = test system: neuronal cell cultures; conditions: Kruman et al., 1997; Malecki et al., 2000; cited from earlier work
[4] = target: T1, human ARL-2 protein (Homo sapiens, UniProt C9JRZ8); experiment: Standard ARL-2 enzyme assay (NADPH A340 decrease); format: biochemical; conditions: sodium-phosphate buffer pH 6.3, 0.2 mmol NADPH, 28° C.
T1 construct: For the expression of the ARL-2 protein, the coding area was amplified by means of the polymerase chain reaction; His-tag; made in house; host or cells: E. coli (pQE30) or insect cells (baculovirus pBlueBac4.5/V5-His-TOPO)
T1 sequence (C9JRZ8 whole entry): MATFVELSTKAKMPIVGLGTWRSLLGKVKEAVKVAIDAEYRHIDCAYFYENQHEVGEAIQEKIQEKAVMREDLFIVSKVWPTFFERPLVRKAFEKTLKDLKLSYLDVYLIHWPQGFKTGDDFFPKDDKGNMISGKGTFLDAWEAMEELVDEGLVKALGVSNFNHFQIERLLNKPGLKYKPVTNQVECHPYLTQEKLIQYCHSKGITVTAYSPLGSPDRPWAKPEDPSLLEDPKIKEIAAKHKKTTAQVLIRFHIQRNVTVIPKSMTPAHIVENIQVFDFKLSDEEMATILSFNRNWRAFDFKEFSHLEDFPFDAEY
Text: For the expression of the ARL-2 protein, the coding area was amplified by means of the polymerase chain reaction (for reaction conditions, see Example 2) (primer for the N-terminal area: 5′ ATGGCCACGTTTGTGGAGCTC 3′; primer for the C-terminal area: 5′ ATATTCTGCATCGAAGGGAAA 3′), and inserted in the baculovirus expression vector pBlueBac4.5/V5-His-TOPO (Invitrogen) or the eukaryotic expression vector pcDNA3.1/V5/His-TOPO (Invitrogen). For the expression of the ARL-2 protein in E. coli, the coding area was amplified by means of a polymerase chain reaction (for reaction conditions, see Example 2) (primer for the N-terminal area: 5′ CGGGATCCGCCACGTTTGTGGAGCTC 3′; primer for the C-terminal area: 5′ CCCAAGCTTTCAATATTCTGCATCGAAGGGAAA 3′) and inserted in the procaryotic expression vector pQE30 (Quiagen). To simplify detection and purification, a fusion with an His-tag was carried out. […]
A standard ARL-2 enzyme assay was performed as follows: The standard enzyme reaction batch contained 135 mmol of sodium-phosphate buffer (pH 6.3), 0.2 mmol of NADPH and measured substrate and enzyme concentrations. The enzyme reaction was carried out at 28° C., and the substrate conversion was determined by spectrometry via the reduction of A340 of the NADPH. […] Controls without substrate and without enzyme were measured with respect to the standard. […]

Row | Compound | induction of apoptosis in the Y1 cell line [1] | induction of apoptosis in endothelial cell cultures [2] | induction of apoptosis in neuronal cell cultures [3] | substrate of the aldo-keto-reductase ARL-2 [4]
1 | CCCCCC(O)/C=C/C=O (centres unmarked) [4-hydroxynonenal] | can induce apoptosis | induces apoptosis | induces apoptosis | preferred substrates
2 | CC(C)CCC=O [isocaproaldehyde] | – | – | – | preferred substrates
